{"source": "patent US20170313665A1", "about": "“HYDROXYALKYL-SUBSTITUTED PHENYLTRIAZOLE DERIVATIVES AND USES THEREOF” (BAYER PHARMA AKTIENGESELLSCHAFT, priority 2014, published 2017)", "key": {"Wistar rats": {"tested_on": "Wistar rats", "test": "Diuresis investigations in conscious rats kept in metabolism cages", "type": "in vivo, rat", "protocol": "Wistar rats (220-450 g body weight) are kept with free access to feed (Altromin) and drinking water. During the experiment, the animals are kept with free access to drinking water for 4 to 8 or up to 24 hours individually in metabolism cages suitable for rats of this weight class (Tecniplast Deutschland GmbH, D-82383 Hohenpeiβenberg). At the beginning of the experiment, the animals are administered the test substance in a volume of 1 to 3 ml/kg body weight of a suitable solvent by means of gavage into the stomach. Control animals only receive solvent. Controls and substance tests are carried out in parallel on the same day. Control groups and substance-dose groups each consist of 4 to 8 animals. During the experiment, the urine excreted by the animals is collected continuously in a receiver at the base of the cage. The volume of urine per time unit is determined separately for each animal, and the concentration of urinary electrolytes is measured by standard methods of flame photometry. Before the beginning of the experiment, the body weight of the individual animals is determined."}, "human V1a receptor": {"target": "T1, human V1a receptor (Homo sapiens, UniProt P37288)", "T1 construct": "expressed in transfected cells; host or cells: CHO K1 (ATCC), also stably transfected with a modified aequorin", "T1 sequence (P37288 whole entry)": "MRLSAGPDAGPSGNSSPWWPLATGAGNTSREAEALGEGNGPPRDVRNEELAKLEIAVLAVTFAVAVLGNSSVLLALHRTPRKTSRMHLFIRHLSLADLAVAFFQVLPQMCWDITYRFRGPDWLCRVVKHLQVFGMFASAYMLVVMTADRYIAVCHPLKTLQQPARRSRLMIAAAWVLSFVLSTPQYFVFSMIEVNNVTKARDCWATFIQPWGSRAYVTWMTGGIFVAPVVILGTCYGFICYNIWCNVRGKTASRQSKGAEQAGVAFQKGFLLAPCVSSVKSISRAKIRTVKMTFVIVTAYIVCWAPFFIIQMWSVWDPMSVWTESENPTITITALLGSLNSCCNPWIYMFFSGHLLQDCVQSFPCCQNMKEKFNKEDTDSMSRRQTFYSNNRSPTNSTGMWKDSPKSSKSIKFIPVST", "test": "Cellular in vitro assay for vasopressin receptor activity, V1a receptor cell line (aequorin luminescence)", "type": "cell-based", "conditions": "CHO cell line transfected with human V1a receptor; [Arg8]-vasopressin at EC50; read-out: IC50 hV1a", "protocol": "The identification of agonists and antagonists of the V1a and V2 vasopressin receptors from humans, rats and dogs as well as the quantification of the activity of the compounds of the invention is carried out using recombinant cell lines. These cell lines originally derive from a hamster's ovary epithelial cell (Chinese Hamster Ovary, CHO K1, ATCC: American Type Culture Collection, Manassas, Va. 20108, USA). The test cell lines constitutively express the human, rat or dog V1a or V2 receptors. […] The resulting vasopressin receptor cells react to stimulation of the recombinantly expressed V1a receptors by intracellular release of calcium ions, which can be quantified by the resulting photoprotein luminescence. […] The bioluminescence of the cell lines is detected using a suitable luminometer [Milligan G, Marshall F, Rees S, Trends in Pharmacological Sciences 17, 235-237 (1996)].\nOn the day before the assay, the cells are plated out in culture medium (DMEM/F12, 2% FCS, 2 mM glutamine, 10 mM HEPES, 5 μg/ml coelenterazine) in 384-well microtiter plates and kept in a cell incubator (96% humidity, 5% v/v CO2, 37° C.). […] The resulting light signal is measured immediately in the luminometer. […]"}, "[1]": {"conditions": "dosage p.o. 0.3 mg/kg, 0.3 mg/kg"}}, "data": [{"smiles": "COc1ccccc1-n1nc(Cn2nc(-c3ccc(Cl)cc3)n(C[C@H](O)C(F)(F)F)c2=O)nc1C(C)O", "note": "(single isomer, unassigned) [Example 11]", "values": [{"measurement": "Urinary volume [% vs. control = 100%]", "setting": "Wistar rats; [1]", "value": 159, "unit": "% vs. control = 100%"}, {"measurement": "Urinary volume [% vs. control = 100%]", "setting": "Wistar rats; dosage p.o. 3.0 mg/kg, 3 mg/kg", "value": 443, "unit": "% vs. control = 100%"}]}, {"smiles": "COc1ccccc1-n1nc(Cn2nc(-c3ccc(Cl)cc3)n(C[C@H](O)C(F)(F)F)c2=O)nc1C(C)O", "note": "(single isomer, unassigned) [Example 12]", "values": [{"measurement": "Urinary volume [% vs. control = 100%]", "setting": "Wistar rats; [1]", "value": 96, "unit": "% vs. control = 100%"}, {"measurement": "Urinary volume [% vs. control = 100%]", "setting": "Wistar rats; dosage p.o. 3.0 mg/kg, 3 mg/kg", "value": 323, "unit": "% vs. control = 100%"}]}, {"smiles": "CC(O)c1nc(Cn2nc(-c3ccc(Cl)cc3)n(C[C@H](O)C(F)(F)F)c2=O)nn1-c1cc(F)cc(Cl)c1", "note": "(single isomer, unassigned) [Example 14]", "values": [{"measurement": "Urinary volume [% vs. control = 100%]", "setting": "Wistar rats; dosage p.o. 1.0 mg/kg", "value": 753, "unit": "% vs. control = 100%"}]}, {"smiles": "CC(O)c1nc(Cn2nc(-c3ccc(Cl)cc3)n(C[C@H](O)C(F)(F)F)c2=O)nn1-c1cc(F)cc(Cl)c1", "note": "(single isomer, unassigned) [Example 15]", "values": [{"measurement": "Urinary volume [% vs. control = 100%]", "setting": "Wistar rats; dosage p.o. 0.3 mg/kg", "value": 412, "unit": "% vs. control = 100%"}, {"measurement": "Urinary volume [% vs. control = 100%]", "setting": "Wistar rats; dosage p.o. 3.0 mg/kg", "value": 1085, "unit": "% vs. control = 100%"}]}, {"smiles": "CC(O)c1nc(Cn2nc(-c3ccc(Cl)cc3)n(C[C@H](O)C(F)(F)F)c2=O)nn1-c1cc(F)ccc1Cl", "note": "(single isomer, unassigned) [Example 59]", "values": [{"measurement": "IC50", "setting": "human V1a receptor", "value": 500, "unit": "pM"}]}, {"smiles": "CC(O)c1nc(Cn2nc(-c3ccc(Cl)cc3)n(C[C@H](O)C(F)(F)F)c2=O)nn1-c1cc(F)ccc1Cl", "note": "(single isomer, unassigned) [Example 60]", "values": [{"measurement": "IC50", "setting": "human V1a receptor", "value": 500, "unit": "pM"}]}, {"smiles": "C[C@H](O)c1nc(Cn2nc(-c3ccc(Cl)cc3)n(C[C@H](O)C(F)(F)F)c2=O)nn1-c1cccc(F)c1", "note": "[Example 76, 5-(4-Chlorophenyl)-2-({1-(3-fluorophenyl)-5-[(1 S)-1-hydroxyethyl]-1H-1,2,4-triazol-3-yl}methyl)-4-[(2S)-3,3,3-trifluoro-2-hydroxypropyl]-2,4-dihydro-3H-1,2,4-triazol-3-one]", "values": [{"measurement": "Urinary volume [% vs. control = 100%]", "setting": "Wistar rats; dosage p.o. 3.0 mg/kg", "value": 1257, "unit": "% vs. control = 100%"}]}, {"smiles": "C[C@H](O)c1nc(Cn2nc(-c3ccc(Cl)cc3)n(C[C@H](O)C(F)(F)F)c2=O)nn1-c1cccc(Cl)c1", "note": "[Example 79, 5-(4-Chlorophenyl)-2-({1-(3-chlorophenyl)-5-[(1S)-1-hydroxyethyl]-1H-1,2,4-triazol-3-yl}methyl)-4-[(2S)-3,3,3-trifluoro-2-hydroxypropyl]-2,4-dihydro-3H-1,2,4-triazol-3-one]", "values": [{"measurement": "Urinary volume [% vs. control = 100%]", "setting": "Wistar rats; dosage p.o. 3.0 mg/kg", "value": 1312, "unit": "% vs. control = 100%"}]}, {"smiles": "C[C@@H](O)c1nc(Cn2nc(-c3ccc(Cl)cc3)n(C[C@H](O)C(F)(F)F)c2=O)nn1-c1ccccc1Cl", "note": "[Example 83, 5-(4-Chlorophenyl)-2-({1-(2-chlorophenyl)-5-[(1R)-1-hydroxyethyl]-1H-1,2,4-triazol-3-yl}-methyl)-4-[(2S)-3,3,3-trifluoro-2-hydroxypropyl]-2,4-dihydro-3H-1,2,4-triazol-3-one]", "values": [{"measurement": "Urinary volume [% vs. control = 100%]", "setting": "Wistar rats; dosage p.o. 3.0 mg/kg", "value": 1094, "unit": "% vs. control = 100%"}]}]}
